This note sets out measurements from patent US20250098679A1, “HERBICIDAL PYRIDONE DERIVATIVES” (SYNGENTA CROP PROTECTION AG, priority 2021, published 2025).

Common to all, as to assay type: in vivo
Conditions in all cases: evaluated after 13 days

Assay [1] has as its system Setaria faberi (SETFA). In words: Pre-emergence Test, Setaria faberi (SETFA).
For assay [2], the system named is Echinochloa crus-galli (ECHCG). Briefly: Pre-emergence Test, Echinochloa crus-galli (ECHCG).
Assay [3] deals with Zea mays (ZEAMX). Briefly: Pre-emergence Test, Zea mays (ZEAMX).
The test system of assay [4] is Ipomoea hederacea (IPOHE). Briefly: Pre-emergence Test, Ipomoea hederacea (IPOHE).
Assay [5] relates to Amaranthus palmeri (AMAPA). Briefly: Pre-emergence Test, Amaranthus palmeri (AMAPA).
Assay [6] deals with Amaranthus retoflexus (AMARE). In words: Pre-emergence Test, Amaranthus retoflexus (AMARE).
In assay [7] the test system is Setaria faberi (SETFA). In words: Post-emergence Test, Setaria faberi (SETFA). Also on record: key to percentage damage caused to the plant, SETFA (five-point scale): 5=81-100%, 4=61-80%, 3=41-60%, 2=21-40%, 1=0-20% damage. The essentials:
(§1)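 Scores are percentage plant damage on a 1–5 scale (1=0-20%, 2=21-40%, 3=41-60%, 4=61-80%, 5=81-100%), read 13 days after treatment. Pots received a spray at 1000 g/ha unless otherwise stated, formulated in acetone/water (50:50) containing 0.5% Tween 20.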

Assay [8] deals with Echinochloa crus-galli (ECHCG). Briefly: Post-emergence Test, Echinochloa crus-galli (ECHCG). Also on record: key to percentage damage caused to the plant, ECHCG (five-point scale): 5=81-100%, 4=61-80%, 3=41-60%, 2=21-40%, 1=0-20% damage. Summed up: as §1
Assay [9] concerns Zea mays (ZEAMX). In words: Post-emergence Test, Zea mays (ZEAMX). Also on record: key to percentage damage caused to the plant, ZEAMX (five-point scale): 5=81-100%, 4=61-80%, 3=41-60%, 2=21-40%, 1=0-20% damage. The essentials: as §1
For assay [10], the system named is Ipomoea hederacea (IPOHE). In words: Post-emergence Test, Ipomoea hederacea (IPOHE). Set-up: key to percentage damage caused to the plant, IPOHE (five-point scale): 5=81-100%, 4=61-80%, 3=41-60%, 2=21-40%, 1=0-20% damage. The essentials: as §1
Assay [11] concerns Amaranthus palmeri (AMAPA). Briefly: Post-emergence Test, Amaranthus palmeri (AMAPA). Also on record: key: 5=81-100%, 4=61-80%, 3=41-60%, 2=21-40%, 1=0-20% damage. Summed up:
as §1

Assay [12] deals with Amaranthus retoflexus (AMARE). Briefly: Post-emergence Test, Amaranthus retoflexus (AMARE). Set-up: key to percentage damage caused to the plant, AMARE (five-point scale): 5=81-100%, 4=61-80%, 3=41-60%, 2=21-40%, 1=0-20% damage. Summed up:
as §1

The structures appear in SMILES notation.

As to `CCn1c(Cn2ccc(C(F)(F)F)n2)c(Br)c(=O)c(C(=O)O)c1-c1ccc(Cl)c(Cl)c1` [Compound 18, 5-bromo-2-(3,4-dichlorophenyl)-1-ethyl-4-oxo-6-[[3-(trifluoromethyl)pyrazol-1-yl]methyl]pyridine-3-carboxylic acid], in the assay with Setaria faberi (SETFA) [1] (1000 g/ha), the “Pre-emergence Test SETFA, percentage damage caused to the plant (five-point scale)” value is 2 (2=21-40%). Besides, in assay [2] (1000 g/ha), the “Pre-emergence Test ECHCG, percentage damage caused to the plant (five-point scale)” value is on record as 1 (1=0-20%). Besides, the “Pre-emergence Test ZEAMX, percentage damage caused to the plant (five-point scale)” value in the assay with Zea mays (ZEAMX) [3] (1000 g/ha) amounted to 0. Besides, the “Pre-emergence Test IPOHE, percentage damage caused to the plant (five-point scale)” value in [4] (1000 g/ha) was determined as 0. Also, the “Pre-emergence Test AMAPA, percentage damage caused to the plant (five-point scale)” value in [5] (1000 g/ha) came out at 0. In addition, the “Pre-emergence Test AMARE, percentage damage caused to the plant (five-point scale)” value in assay [6] (1000 g/ha) is 0. Besides, the “percentage damage caused to the plant, SETFA (five-point scale)” value in the assay with Setaria faberi (SETFA) [7] (250 g/Ha) was 1 (1=0-20%); with Setaria faberi (SETFA) [7] (1000 g/ha), 3 (3=41-60%). The “percentage damage caused to the plant, ECHCG (five-point scale)” value was 1 (1=0-20%) in assay [8] (250 g/Ha) and 3 (3=41-60%) in assay [8] (1000 g/ha). Moreover, the “percentage damage caused to the plant, ZEAMX (five-point scale)” value was 1 (1=0-20%) in the assay with Zea mays (ZEAMX) [9] (250 g/Ha) and 2 (2=21-40%) in the assay with Zea mays (ZEAMX) [9] (1000 g/ha). In addition, the “percentage damage caused to the plant, IPOHE (five-point scale)” value in assay [10] (250 g/Ha) and in [10] (1000 g/ha) was 1 (1=0-20%) in each case. In addition, the “percentage damage caused to the plant, AMAPA (five-point scale)” value was 0 in assay [11] (250 g/Ha) and 2 (2=21-40%) in assay [11] (1000 g/ha). The “percentage damage caused to the plant, AMARE (five-point scale)” value in assay [12] (250 g/Ha) and in [12] (1000 g/ha) was 1 (1=0-20%) each time.

For the molecule `CCn1c(Cn2ccc(C(F)(F)F)n2)cc(=O)c(C(=O)O)c1-c1ccc(Cl)c(C#N)c1` [Compound 128, 2-(4-chloro-3-cyano-phenyl)-1-ethyl-4-oxo-6-[[3-(trifluoromethyl)pyrazol-1-yl]methyl]pyridine-3-carboxylic acid], the “Pre-emergence Test SETFA, percentage damage caused to the plant (five-point scale)” value with Setaria faberi (SETFA) [1] (1000 g/ha) is given as 3 (3=41-60%). The “Pre-emergence Test ECHCG, percentage damage caused to the plant (five-point scale)” value in assay [2] (1000 g/ha) is 1 (1=0-20%). For the same molecule, the “Pre-emergence Test ZEAMX, percentage damage caused to the plant (five-point scale)” value in the assay on Zea mays (ZEAMX) [3] (1000 g/ha) was determined as 0. For the same molecule, the “Pre-emergence Test IPOHE, percentage damage caused to the plant (five-point scale)” value in assay [4] (1000 g/ha) is listed as 1 (1=0-20%). In addition, the “Pre-emergence Test AMAPA, percentage damage caused to the plant (five-point scale)” value in assay [5] (1000 g/ha) was 1 (1=0-20%). Also, the “Pre-emergence Test AMARE, percentage damage caused to the plant (five-point scale)” value in assay [6] (1000 g/ha) is 1 (1=0-20%). The “percentage damage caused to the plant, SETFA (five-point scale)” value in the assay with Setaria faberi (SETFA) [7] (250 g/Ha) is listed as 0; with Setaria faberi (SETFA) [7] (1000 g/ha), 3 (3=41-60%). For the same molecule, the “percentage damage caused to the plant, ECHCG (five-point scale)” value in assay [8] (250 g/Ha) was 1 (1=0-20%); in assay [8] (1000 g/ha) it was 4 (4=61-80%). Moreover, the “percentage damage caused to the plant, ZEAMX (five-point scale)” value in the assay on Zea mays (ZEAMX) [9] (250 g/Ha) is given as 0; with Zea mays (ZEAMX) [9] (1000 g/ha), 1 (1=0-20%). The “percentage damage caused to the plant, IPOHE (five-point scale)” value in assay [10] (250 g/Ha) and in assay [10] (1000 g/ha) was 1 (1=0-20%) in each case. Besides, the “percentage damage caused to the plant, AMAPA (five-point scale)” value is listed as 0 in assay [11] (250 g/Ha) and 1 (1=0-20%) in [11] (1000 g/ha). For the same molecule, the entries for the “percentage damage caused to the plant, AMARE (five-point scale)” value in assay [12] (250 g/Ha) and in [12] (1000 g/ha) were 0 and 1 (1=0-20%), respectively.

As for `CCn1c(Cn2cc(C(F)(F)F)cn2)cc(=O)c(C(=O)O)c1-c1ccc(Cl)c(Cl)c1` [Compound 6, 2-(3,4-dichlorophenyl)-1-ethyl-4-oxo-6-[[4-(trifluoromethyl)pyrazol-1-yl]methyl]pyridine-3-carboxylic acid], the “Pre-emergence Test SETFA, percentage damage caused to the plant (five-point scale)” value with Setaria faberi (SETFA) [1] (250 g/Ha (*)) is 2 (2=21-40%); in the assay on Setaria faberi (SETFA) [1] (1000 g/ha), 4 (4=61-80%). Moreover, the “Pre-emergence Test ECHCG, percentage damage caused to the plant (five-point scale)” value in [2] (250 g/Ha (*)) and in assay [2] (1000 g/ha) was 3 (3=41-60%) each time. In addition, the “Pre-emergence Test ZEAMX, percentage damage caused to the plant (five-point scale)” value in the assay with Zea mays (ZEAMX) [3] (250 g/Ha (*)) and in the assay on Zea mays (ZEAMX) [3] (1000 g/ha) was 0 each time. The entries for the “Pre-emergence Test IPOHE, percentage damage caused to the plant (five-point scale)” value in assay [4] (250 g/Ha (*)) and in [4] (1000 g/ha) were 1 (1=0-20%) and 2 (2=21-40%), respectively. In addition, the “Pre-emergence Test AMAPA, percentage damage caused to the plant (five-point scale)” value in assay [5] (250 g/Ha (*)) is given as 1 (1=0-20%). Besides, the “Pre-emergence Test AMARE, percentage damage caused to the plant (five-point scale)” value in [6] (250 g/Ha (*)) and in assay [6] (1000 g/ha) was 0 in each case. The “percentage damage caused to the plant, SETFA (five-point scale)” value is on record as 0 with Setaria faberi (SETFA) [7] (250 g/Ha) and 4 (4=61-80%) in the assay with Setaria faberi (SETFA) [7] (1000 g/ha). The “percentage damage caused to the plant, ECHCG (five-point scale)” value in assay [8] (250 g/Ha) is recorded as 3 (3=41-60%); in [8] (1000 g/ha) it was 4 (4=61-80%). For the same molecule, the “percentage damage caused to the plant, ZEAMX (five-point scale)” value with Zea mays (ZEAMX) [9] (250 g/Ha) was 0; in the assay on Zea mays (ZEAMX) [9] (1000 g/ha) it was 4 (4=61-80%). Also, the “percentage damage caused to the plant, IPOHE (five-point scale)” value in assay [10] (250 g/Ha) and in assay [10] (1000 g/ha) was 1 (1=0-20%) each time. Further, the “percentage damage caused to the plant, AMAPA (five-point scale)” value in [11] (250 g/Ha) is recorded as 0; in assay [11] (1000 g/ha) it was 2 (2=21-40%). Further, the “percentage damage caused to the plant, AMARE (five-point scale)” value is on record as 1 (1=0-20%) in assay [12] (250 g/Ha) and 0 in assay [12] (1000 g/ha).

For the molecule `CCn1c(Cn2cncc2C(F)(F)F)cc(=O)c(C(=O)O)c1-c1ccc(Cl)c(Cl)c1` [Compound 16, 2-(3,4-dichlorophenyl)-1-ethyl-4-oxo-6-[[5-(trifluoromethyl)imidazol-1-yl]methyl]pyridine-3-carboxylic acid], the “Pre-emergence Test SETFA, percentage damage caused to the plant (five-point scale)” value is 0 in the assay with Setaria faberi (SETFA) [1] (250 g/Ha (*)) and 1 (1=0-20%) with Setaria faberi (SETFA) [1] (1000 g/ha). In addition, the “Pre-emergence Test ECHCG, percentage damage caused to the plant (five-point scale)” value is given as 1 (1=0-20%) in [2] (250 g/Ha (*)) and 4 (4=61-80%) in assay [2] (1000 g/ha). In addition, the “Pre-emergence Test ZEAMX, percentage damage caused to the plant (five-point scale)” value in the assay with Zea mays (ZEAMX) [3] (250 g/Ha (*)) and with Zea mays (ZEAMX) [3] (1000 g/ha) was 0 each time. Moreover, the “Pre-emergence Test IPOHE, percentage damage caused to the plant (five-point scale)” value in assay [4] (250 g/Ha (*)) and in assay [4] (1000 g/ha) was 0 in each case. Besides, the “Pre-emergence Test AMAPA, percentage damage caused to the plant (five-point scale)” value in [5] (250 g/Ha (*)) is 3 (3=41-60%); in [5] (1000 g/ha), 5 (5=81-100%). The “Pre-emergence Test AMARE, percentage damage caused to the plant (five-point scale)” value in [6] (250 g/Ha (*)) is listed as 1 (1=0-20%); in [6] (1000 g/ha) it was 4 (4=61-80%). Besides, the “percentage damage caused to the plant, SETFA (five-point scale)” value in the assay on Setaria faberi (SETFA) [7] (250 g/Ha) is 2 (2=21-40%); in the assay with Setaria faberi (SETFA) [7] (1000 g/ha) it was 5 (5=81-100%). Besides, the “percentage damage caused to the plant, ECHCG (five-point scale)” value in [8] (250 g/Ha) was 2 (2=21-40%); in assay [8] (1000 g/ha), 4 (4=61-80%). The “percentage damage caused to the plant, ZEAMX (five-point scale)” value in the assay on Zea mays (ZEAMX) [9] (250 g/Ha) is given as 0; in the assay on Zea mays (ZEAMX) [9] (1000 g/ha), 4 (4=61-80%). Moreover, the “percentage damage caused to the plant, IPOHE (five-point scale)” value in [10] (250 g/Ha) is 2 (2=21-40%); in [10] (1000 g/ha) it was 5 (5=81-100%). Also, the results for the “percentage damage caused to the plant, AMAPA (five-point scale)” value in [11] (250 g/Ha) and in assay [11] (1000 g/ha) were 4 (4=61-80%) and 5 (5=81-100%), respectively. The “percentage damage caused to the plant, AMARE (five-point scale)” value in assay [12] (250 g/Ha) is listed as 4 (4=61-80%); in assay [12] (1000 g/ha), 1 (1=0-20%).
